Data set [1] can be described thus: The drug is tested on Z-005 corresponding to metagenome with ENA study accession number: PRJEB37062 and ENA sample accession number: ERS12561805 for biotransformation under anaerobic condition. The drug concentrations were measured over 9 timepoints collected between 0 and 24 hours of incubation by liquid-chromatography-coupled mass spectrometry (LC–MS). Conditions: 2 µM.

Data set [2] is described as follows: The drug is tested on Z-030 corresponding to mouse gut metagenome with ENA study accession number: PRJEB37062 and ENA sample accession number: ERS12561829 for biotransformation under anaerobic condition. The drug concentrations were measured over 9 timepoints collected between 0 and 24 hours of incubation by liquid-chromatography-coupled mass spectrometry (LC–MS). Conditions: 2 µM.

A short description of data set [3]: The drug is tested on Z-026 corresponding to metagenome with ENA study accession number: PRJEB37062 and ENA sample accession number: ERS12561825 for biotransformation under anaerobic condition. The drug concentrations were measured over 9 timepoints collected between 0 and 24 hours of incubation by liquid-chromatography-coupled mass spectrometry (LC–MS). Conditions: 2 µM.

The conditions of data set [4]: human gut metagenome, 24 h, 2 µM.
The nature of data set [5]: The drug is tested on Z-009 corresponding to pig gut metagenome with ENA study accession number: PRJEB37062 and ENA sample accession number: ERS12561809 for biotransformation under anaerobic condition. The drug concentrations were measured over 9 timepoints collected between 0 and 24 hours of incubation by liquid-chromatography-coupled mass spectrometry (LC–MS). Conditions: 2 µM.

For data set [6] the following is noted: human gut metagenome, 24 h, 2 µM. The source holds these as a separate data set.
The conditions of data set [7]: human gut metagenome, 24 h, 2 µM. This is another data set of the same source.
The conditions of data set [8]: human gut metagenome, 24 h, 2 µM. The source holds these as a separate data set.
A short description of data set [9]: The drug is tested on Z-017 corresponding to mouse gut metagenome with ENA study accession number: PRJEB37062 and ENA sample accession number: ERS12561816 for biotransformation under anaerobic condition. The drug concentrations were measured over 9 timepoints collected between 0 and 24 hours of incubation by liquid-chromatography-coupled mass spectrometry (LC–MS). Conditions: 2 µM.

Data set [10] in a line: The drug is tested on WLS-006 corresponding to human gut metagenome with ENA study accession number: PRJEB37062 and ENA sample accession number: ERS12561741 for biotransformation under anaerobic condition. The drug concentrations were measured over 9 timepoints collected between 0 and 24 hours of incubation by liquid-chromatography-coupled mass spectrometry (LC–MS). Conditions: 2 µM.

Data set [11] in a line: The drug is tested on Z-028 corresponding to mouse gut metagenome with ENA study accession number: PRJEB37062 and ENA sample accession number: ERS12561827 for biotransformation under anaerobic condition. The drug concentrations were measured over 9 timepoints collected between 0 and 24 hours of incubation by liquid-chromatography-coupled mass spectrometry (LC–MS). Conditions: 2 µM.

A short description of data set [12]: The drug is tested on WLS-039 corresponding to human gut metagenome with ENA study accession number: PRJEB37062 and ENA sample accession number: ERS12561746 for biotransformation under anaerobic condition. The drug concentrations were measured over 9 timepoints collected between 0 and 24 hours of incubation by liquid-chromatography-coupled mass spectrometry (LC–MS). Conditions: 2 µM.

The conditions of data set [13]: human gut metagenome, 24 h, 2 µM. The source holds these as a separate data set.
Data set [14] is described as follows: The drug is tested on Z-004 corresponding to metagenome with ENA study accession number: PRJEB37062 and ENA sample accession number: ERS12561804 for biotransformation under anaerobic condition. The drug concentrations were measured over 9 timepoints collected between 0 and 24 hours of incubation by liquid-chromatography-coupled mass spectrometry (LC–MS). Conditions: 2 µM.

The conditions of data set [15]: human gut metagenome, 24 h, 2 µM. This is another data set of the same source.
For data set [16] the following is noted: human gut metagenome, 24 h, 2 µM. This is another data set of the same source.
For data set [17] the following is noted: human gut metagenome, 24 h, 2 µM. The source holds these as a separate data set.
The nature of data set [18]: The drug is tested on Z-007 corresponding to rat gut metagenome with ENA study accession number: PRJEB37062 and ENA sample accession number: ERS12561807 for biotransformation under anaerobic condition. The drug concentrations were measured over 9 timepoints collected between 0 and 24 hours of incubation by liquid-chromatography-coupled mass spectrometry (LC–MS). Conditions: 2 µM.

The conditions of data set [19]: human gut metagenome, 24 h, 2 µM. This is another data set of the same source.
Data set [20] in a line: The drug is tested on WLS-240 corresponding to human gut metagenome with ENA study accession number: PRJEB37062 and ENA sample accession number: ERS12561773 for biotransformation under anaerobic condition. The drug concentrations were measured over 9 timepoints collected between 0 and 24 hours of incubation by liquid-chromatography-coupled mass spectrometry (LC–MS). Conditions: 2 µM.

Results on 3 molecules are retold here after ChEMBL document CHEMBL5724914, “Linking interpersonal differences in gut microbiota composition and drug biotransformation activity” (2024).
Further: call rule not given here.

Turning to `CCCN1C[C@H](CSC)C[C@@H]2c3cccc4[nH]cc(c34)C[C@H]21.CS(=O)(=O)O` [PERGOLIDE MESYLATE], the “Bacterial Biotransformation” value in data set [1], in data set [2], in data set [3], in data set [4], in data set [5] and in [6] was “Compound NOT metabolized” throughout. Further, the “Bacterial Biotransformation” value in data set [7], in data set [8], in data set [9], in [10], in data set [11] and in [12] was “Compound NOT metabolized” each time. Besides, the “Bacterial Biotransformation” value in data set [13], in [14], in [15], in data set [16], in data set [17] and in data set [18] was “Compound NOT metabolized” in each case. Also, the “Bacterial Biotransformation” value in data set [19] and in data set [20] was “Compound NOT metabolized” in each case.

Take `CCCC(C)(COC(N)=O)COC(=O)NC(C)C` (stereo not given) [CARISOPRODOL]: the “Bacterial Biotransformation” value is recorded as “Compound metabolized” in [1]; “Compound NOT metabolized” in data set [2]; “Compound NOT metabolized” in data set [3]; “Compound metabolized” in data set [4]; “Compound metabolized” in [5]; “Compound metabolized” in data set [6]. Further, the “Bacterial Biotransformation” value is recorded as “Compound metabolized” in data set [7]; “Compound NOT metabolized” in [8]; “Compound NOT metabolized” in data set [9]; “Compound metabolized” in [10]; “Compound metabolized” in data set [11]; “Compound metabolized” in data set [12]. The “Bacterial Biotransformation” value in data set [13] was “Compound metabolized”; in [14], “Compound metabolized”; in data set [15], “Compound metabolized”; in data set [16], “Compound metabolized”; in data set [17], “Compound metabolized”; in data set [18], “Compound NOT metabolized”. The “Bacterial Biotransformation” value in [19] and in [20] was “Compound metabolized” throughout.

`CN(C)C(=O)Oc1cc(OC(=O)N(C)C)cc(C(O)CNC(C)(C)C)c1` (stereo not given) [BAMBUTEROL]: the “Bacterial Biotransformation” value in data set [1] was “Compound NOT metabolized”; in data set [2], “Compound NOT metabolized”; in [3] it was “Compound NOT metabolized”; in [4], “Compound NOT metabolized”; in data set [5], “Compound metabolized”; in [6], “Compound NOT metabolized”. In addition, the “Bacterial Biotransformation” value in data set [7] is “Compound metabolized”; in data set [8], “Compound NOT metabolized”; in data set [9], “Compound NOT metabolized”; in data set [10] it was “Compound metabolized”; in data set [11] it was “Compound NOT metabolized”; in data set [12] it was “Compound NOT metabolized”. In addition, the “Bacterial Biotransformation” value is given as “Compound NOT metabolized” in data set [13]; “Compound metabolized” in [14]; “Compound NOT metabolized” in data set [15]; “Compound NOT metabolized” in data set [16]; “Compound metabolized” in data set [17]; “Compound NOT metabolized” in [18]. The results for the “Bacterial Biotransformation” value in [19] and in data set [20] were “Compound NOT metabolized” and “Compound metabolized”, respectively.
